Laboratory results: BindingDB's records for doi:10.7270/Q2X928QK (University of Pittsburgh, 2007)

biological target: T1, M-phase inducer phosphatase 2 (Homo sapiens, UniProt P30305); assay: Cdc25B catalytic domain inhibition plus catalase – biochemical, catalase present, probe assessment, dose response (AID 668)
T1 sequence (P30305 whole entry): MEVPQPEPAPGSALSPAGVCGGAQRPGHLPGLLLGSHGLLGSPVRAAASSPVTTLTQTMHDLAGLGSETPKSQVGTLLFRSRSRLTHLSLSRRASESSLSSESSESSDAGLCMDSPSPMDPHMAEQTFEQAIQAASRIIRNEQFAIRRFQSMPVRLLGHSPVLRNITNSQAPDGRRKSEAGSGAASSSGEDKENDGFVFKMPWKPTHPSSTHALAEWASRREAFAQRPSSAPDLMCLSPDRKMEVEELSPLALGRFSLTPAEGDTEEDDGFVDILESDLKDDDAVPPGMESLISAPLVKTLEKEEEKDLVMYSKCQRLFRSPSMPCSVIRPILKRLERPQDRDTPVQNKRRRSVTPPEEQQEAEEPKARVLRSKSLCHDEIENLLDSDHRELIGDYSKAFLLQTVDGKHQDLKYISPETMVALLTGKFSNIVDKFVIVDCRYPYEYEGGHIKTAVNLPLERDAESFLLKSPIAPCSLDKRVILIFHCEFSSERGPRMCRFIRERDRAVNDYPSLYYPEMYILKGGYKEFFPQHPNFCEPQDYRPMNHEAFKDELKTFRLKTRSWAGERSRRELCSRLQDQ

Row | Compound | IC50 [µM]
1 | Cc1ccc2c(c1C)NC(C(=O)O)C1CC=CC21 (stereo not given) | 7.12
2 | [O-]/[N+](=C\c1ccc(OC(F)F)cc1)c1ccccc1 [1-[4-(difluoromethoxy)phenyl]-N-phenylmethanimine oxide] | > 50
3 | [O-]/[N+](=C\c1ccncc1)c1ccccc1 | > 50
4 | O=C1C=Cc2ccccc2C1=O [1,2-dihydronaphthalene-1,2-dione] | 25.4
5 | CCOc1ccc2noc3c2c1C(=O)c1ccccc1-3 [MLS000106837] | > 50
6 | N#Cc1c(N2CCCC2)nc(N)c2c(N)nc(N3CCCC3)cc12 [SMR000061605] | > 50
7 | Cc1c(N=c2c(=O)c3ccccc3c2=O)c(=O)n(-c2ccccc2)n1C [MLS000105950] | > 50
8 | O=C1Cc2ccccc2C(=O)N1CCc1ccccc1 [2-(2-phenylethyl)-4H-isoquinoline-1,3-dione] | 48.9
9 | O=C(NC1(O)C(=O)c2ccccc2C1=O)c1ccccc1 [N-(2-hydroxy-1,3-dioxo-2-indenyl)benzamide] | > 50
10 | COc1ccc(Br)cc1C=c1sc2nc(-c3ccco3)nn2c1=O [5-[(5-bromanyl-2-methoxy-phenyl)methylidene]-2-(furan-2-yl)-[1,3]thiazolo[3,2-b][1,2,4]triazol-6-one] | 4.2
11 | CC(=O)Nc1cc(OC(C)=O)c2nonc2c1OC(C)=O [Acetic acid 7-acetoxy-5-acetylamino-benzo[1,2,5]oxadiazol-4-yl ester] | > 50
12 | N#Cc1c(N)sc(=S)c2c1CCN(Cc1ccccc1)C2 [3-Amino-7-benzyl-1-thioxo-5,6,7,8-tetrahydro-1H-thiopyrano[3,4-c]pyridine-4-carbonitrile] | 14.1
13 | CCn1nc(-c2ccccc2)nc2c(=O)n(C)c(=O)nc1-2 [1-Ethyl-6-methyl-3-phenyl-1H-pyrimido[5,4-e][1,2,4]triazine-5,7-dione] | 20
14 | Cn1ncnc2c(=O)n(C)c(=O)nc1-2 | 23
15 | Nc1cccc2cnccc12 [isoquinolin-5-amine] | > 50
16 | Cc1ccccc1Nc1cc2ccccc2c(O)n1 [3-[(2-methylphenyl)amino]-2H-isoquinolin-1-one] | 45
17 | O=C(Nc1ccc2nc(-c3ccco3)c(-c3ccco3)nc2c1)N1CCCCCC1 | 22.4
18 | O=C(O)C1Nc2c(O)cccc2C2C=CCC12 (stereo not given) | 11
19 | COc1cccc2c1NC(C(=O)O)C1CC=CC21 (stereo not given) [SMR000009698] | 6.18
20 | CCOC(=O)C(C(=O)OCC)c1cc(Br)c2noc3c2c1C(=O)c1ccccc1-3 [MLS000038842] | > 50
21 | O=C(OC1CCCCC1)c1ccc2c(c1)C1C=CCC1C(C(=O)O)N2 (stereo not given) [SMR000019385] | 3.8
22 | CCn1nc(-c2cccs2)nc2c(=O)n(C)c(=O)nc1-2 [1-ethyl-6-methyl-3-thiophen-2-yl-pyrimido[5,4-e][1,2,4]triazine-5,7-dione] | > 50
23 | Oc1nc(Nc2ccccc2)cc2ccccc12 [MLS000043701] | 45.8
24 | Cc1ccc2c(c1)C1C=CCC1C(C(=O)O)N2 (stereo not given) [MLS-0067149.0001] | 7.35
25 | COc1ccc2noc3c2c1C(=O)c1ccccc1-3 [MLS000106874] | > 50
